pIC50: −log10 of the molar value.
Target: Corticotropin-releasing factor receptor 2 (Sus scrofa)
Assay: Inhibition of [125I]- sauvagine binding to corticotropin releasing factor receptor 2 of porcine choroid plexus

In the case of CCc1nc2c(n1C(C1CC1)C1CC1)C(=O)N(C)CN2c1ccc(Cl)cc1Cl [3-(2,4-Dichloro-phenyl)-7-dicyclopropylmethyl-8-ethyl-1-methyl-1,2,3,7-tetrahydro-purin-6-one], the pIC50 was < 5.00.

Source: BindingDB's records for doi:10.1021/jm049787k (Pharmaceutical Research Institute, 2004)
